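Grown in 96-well plates, cells were treated for 48 hours with each compound at five concentrations. Insufficient inhibition: endpoint recorded as highest concentration tested. The concentration for 50% growth inhibition is given as GI50.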 Calls of active or inactive are those of the source. Cut-off read from the data, not from the text of the source: active = GI50 up to about 1.1 µM and inactive = higher.
Key:
Test in all cases: DTP human tumour cell line panel, 48 h
OVCAR-5 = test system: OVCAR-5
COLO 205 = test system: COLO 205
M14 = test system: M14
RPMI-8226 = test system: RPMI-8226
HOP-62 = test system: HOP-62
OVCAR-4 = test system: OVCAR-4
SF-268 = test system: SF-268
MOLT-4 = test system: MOLT-4
ACHN = test system: ACHN
K562 = test system: K562
OVCAR-3 = test system: OVCAR-3
UO-31 = test system: UO-31
SNB-19 = test system: SNB-19
UACC-257 = test system: UACC-257
HCC 2998 = test system: HCC 2998
NCI-H522 = test system: NCI-H522
HL-60 = test system: HL-60
HCT-15 = test system: HCT-15
SK-MEL-28 = test system: SK-MEL-28
HCT-116 = test system: HCT-116

Structure (SMILES) | GI50 (OVCAR-5) | GI50 (COLO 205) | GI50 (M14) | GI50 (RPMI-8226) | GI50 (HOP-62) | GI50 (OVCAR-4) | GI50 (SF-268) | GI50 (MOLT-4) | GI50 (ACHN) | GI50 (K562) | GI50 (OVCAR-3) | GI50 (UO-31) | GI50 (SNB-19) | GI50 (UACC-257) | GI50 (HCC 2998) | GI50 (NCI-H522) | GI50 (HL-60) | GI50 (HCT-15) [µM] | GI50 (SK-MEL-28) | GI50 (HCT-116)
CCOC1CC2OC(=O)C1C=C2C(=O)OC (stereo not given) | > 100 µM (inactive) | 19.1 µM (inactive) | 18.5 µM (inactive) | 14.7 µM (inactive) | > 100 µM (inactive) | 23.1 µM (inactive) | 28.9 µM (inactive) | 17.4 µM (inactive) | 27.8 µM (inactive) | 25.8 µM (inactive) | 28.4 µM (inactive) | 35.7 µM (inactive) | 28 µM (inactive) | 27.7 µM (inactive) | > 100 µM (inactive) | 12 µM (inactive) | 19.6 µM (inactive) | 27.7 | 21 µM (inactive) | 
O=C1OC(c2ccccc2)=N/C1=C\c1cccnc1 | > 100 µM (inactive) |  | > 100 µM (inactive) | 48.3 µM (inactive) | > 100 µM (inactive) | > 100 µM (inactive) | > 100 µM (inactive) | 2.84 µM (inactive) | > 100 µM (inactive) | 34.8 µM (inactive) | > 100 µM (inactive) | > 100 µM (inactive) | > 100 µM (inactive) | > 100 µM (inactive) | > 100 µM (inactive) | > 100 µM (inactive) | 20.7 µM (inactive) | > 100 | > 100 µM (inactive) | 
CC(C)C1=CC2=CC[C@@H]3[C@](C)(CCC[C@@]3(C)C(=O)O)[C@H]2CC1 [ABIETIC ACID] | > 75.5 µM (inactive) | 40.3 µM (inactive) | 67.9 µM (inactive) | > 46.6 µM (inactive) | > 67.8 µM (inactive) | 59.6 µM (inactive) | > 69 µM (inactive) | 40.2 µM (inactive) | 53.8 µM (inactive) | > 53 µM (inactive) | 35.7 µM (inactive) | 43.7 µM (inactive) | > 67.1 µM (inactive) | 56.1 µM (inactive) | > 80 µM (inactive) | 45.7 µM (inactive) | > 50.5 µM (inactive) | 43.4 | > 59.3 µM (inactive) | 45.1 µM (inactive)
CC1=COC2=C(C)C(=O)C(=O)c3c(C)ccc1c32 [MANSONONE F] | 18.2 µM (inactive) | 2.55 µM (inactive) | 2.86 µM (inactive) | 1.42 µM (inactive) | 4.52 µM (inactive) | 2.77 µM (inactive) | 4.44 µM (inactive) | 2.56 µM (inactive) | 8.3 µM (inactive) | 3.66 µM (inactive) | 0.349 µM (active) | 14.7 µM (inactive) | 4.07 µM (inactive) | 7.23 µM (inactive) | 6.27 µM (inactive) | 2.17 µM (inactive) | 2.1 µM (inactive) | 2.43 | 14.2 µM (inactive) | 2.61 µM (inactive)
CCN(CC)C(=O)C(C)n1cc(C)c(=O)[nH]c1=O (stereo not given) | > 100 µM (inactive) | > 100 µM (inactive) | > 100 µM (inactive) | > 100 µM (inactive) | > 100 µM (inactive) | > 100 µM (inactive) | > 100 µM (inactive) | > 100 µM (inactive) | > 100 µM (inactive) | > 100 µM (inactive) | > 100 µM (inactive) | > 100 µM (inactive) | > 100 µM (inactive) |  | > 100 µM (inactive) | > 100 µM (inactive) | > 100 µM (inactive) | > 100 | > 100 µM (inactive) | > 100 µM (inactive)
NC(=O)C(=O)N/N=C1/c2ccccc2CC1C1(O)C(=O)Nc2c(Cl)cc(Cl)cc21 (stereo not given) | > 100 µM (inactive) | > 100 µM (inactive) |  | > 100 µM (inactive) | > 100 µM (inactive) | > 100 µM (inactive) | > 100 µM (inactive) | > 100 µM (inactive) | > 100 µM (inactive) | 88.7 µM (inactive) | > 100 µM (inactive) | > 100 µM (inactive) | > 100 µM (inactive) | > 100 µM (inactive) | > 100 µM (inactive) | 61.4 µM (inactive) | > 100 µM (inactive) | > 100 | > 100 µM (inactive) | > 100 µM (inactive)
C=C1C(=O)O[C@H]2C/C(C)=C/CC[C@@]3(C)O[C@](C)(CC[C@@H]3I)[C@@H](I)C[C@@H]12 | 10.2 µM (inactive) | 3.39 µM (inactive) | 10.9 µM (inactive) | 0.959 µM (active) | 8.59 µM (inactive) | 6.14 µM (inactive) | 6.92 µM (inactive) | 0.925 µM (active) | 7.03 µM (inactive) | 1.95 µM (inactive) | 3.21 µM (inactive) | 5.66 µM (inactive) | 6.95 µM (inactive) | 5.9 µM (inactive) | 4.09 µM (inactive) | 3.05 µM (inactive) | 0.893 µM (active) | 2.4 | 7.01 µM (inactive) | 2.92 µM (inactive)
